Columns and labels:
[1] = tested on: FADD-deficient variant of human Jurkat T cells; assay: Necroptosis inhibition in FADD-deficient Jurkat T cells treated with TNF-α, ATP-based viability; format: cell-based; settings: for EC50: Jurkat, 10 ng/mL human TNF-α, 24 hours; for necroptosis inhibitory activity in words: TNF-α treated FADD-deficient Jurkat T cells
Method: Stock solutions (30 mM) in DMSO were initially prepared and then diluted with DMSO to give testing solutions, which were added to each test well. The final DMSO concentration was 0.5%. Eleven compound test concentrations (0.030-100 μM) were used. Each concentration was done in duplicate.
Cell viability assessments were performed using a commercial luminescent ATP-based assay kit (CellTiter-Glo, Promega, Madison, Wis.) according to the manufacturer's instructions. Briefly, 40 μL of the cell lysis/ATP detection reagent was added to each well. Plates were incubated on a rocking platform for 10 minutes at room temperature and luminescence was measured using a Wallac Victor 3 plate-reader (Perkin Elmer, Wellesley, Mass.). Cell viability was expressed as a ratio of the signal in the well treated with TNF-α and compound to the signal in the well treated with compound alone. […] EC50 values were calculated using nonlinear regression analysis of sigmoid dose-response (variable slope) curves from plots of log[I] verses viability values.

[2] = Microsome stability in pooled mouse liver microsomes; format: in vitro ADME; settings: 3 μM compound, 0.5 mg/mL microsome protein, 1 mM NADPH; for microsomal CLint at 3 μM: in vitro intrinsic clearance, N=3, read-out: CLint (μL/minutes/mg protein)
Method: Microsome stability was determined in pooled mouse liver microsomes. Test compound (3 μM final concentration) along with 0.5 mg/mL microsome protein and 1 mM NADPH was incubated for 0, 5, 15, 30 and 60 minutes. Incubation of test compound and microsomes in the absence of NADPH served as a negative control. The samples were quenched with methanol and centrifuged for 20 minutes at 2500 rpm to precipitate proteins. Sample supernatants were analyzed (N=3) by LC/MS. The In peak area ratio (compound peak area/internal standard peak area) was plotted against time and the slope of the line determined to give the elimination rate constant [k=(−1)(slope)]. The half life (t1/2 in minutes), and the in vitro intrinsic clearance (CLint in μL/min/mg protein) were calculated according to the following equations, where V=incubation volume in μL/mg protein: […]

[3] = Table 2, Formula (I-a), standard deviation <10%

SMILES: CC(NC(=O)c1cccn1C(C)C)c1c(F)cccc1Cl (racemic) [Compound 89]
- EC50 ([1]; Table 5, pyrrole compounds): 2.1 µM

SMILES: CCCCC(NC(=O)c1cccn1C(C)C)c1c(F)cccc1Cl (racemic) [Compound 92]
- EC50 ([1]; Table 5, pyrrole compounds): > 20 µM

SMILES: Fc1cccc(Cl)c1CNCc1snnc1C1CC1 [Compound 13]
- EC50 ([1]; Table 3, Formula (I-b)): > 100 µM
- necroptosis inhibitory activity in words [1]: inactive

SMILES: O=C(NC(=O)c1c(F)cccc1Cl)c1snnc1C1CC1 [Compound 16]
- EC50 ([1]; Table 3, Formula (I-b)): > 100 µM
- necroptosis inhibitory activity in words [1]: inactive

SMILES: O=C(NCc1c(F)cccc1Cl)c1snnc1C1CCC1 [Compound 33]
- EC50 [1, 3]: 0.6 µM

SMILES: O=C(NCc1c(F)cccc1Cl)c1snnc1C1CCCC1 [Compound 34]
- EC50 [1, 3]: 1.9 µM

SMILES: O=C(NCc1c(F)cccc1Cl)c1snnc1C1CCCCC1 [Compound 35]
- EC50 [1, 3]: 6 µM

SMILES: CC(C)(C)c1nnsc1C(=O)NCc1c(F)cccc1Cl [Compound 36]
- EC50 [1, 3]: 18 µM

SMILES: O=C(NCc1c(F)cccc1Cl)c1snnc1-c1ccccc1 [Compound 37]
- EC50 [1, 3]: > 100 µM

SMILES: O=C(NCc1c(F)cccc1F)c1snnc1C1CC1 [Compound 39]
- EC50 [1, 3]: 1.5 µM

SMILES: O=C(NCc1ccccc1F)c1snnc1C1CC1 [Compound 40]
- EC50 [1, 3]: 1.5 µM

SMILES: Cc1cccc(Cl)c1CNC(=O)c1snnc1C1CC1 [Compound 41]
- EC50 [1, 3]: 10 µM

SMILES: O=C(NCc1c(F)cccc1C(F)(F)F)c1snnc1C1CC1 [Compound 44]
- EC50 [1, 3]: > 100 µM

SMILES: O=C(NCc1cccc2ccccc12)c1snnc1C1CC1 [Compound 45]
- EC50 [1, 3]: > 100 µM

SMILES: Cn1c(Cl)ccc1C(=O)NCc1c(F)cccc1Cl [Compound 78]
- EC50 ([1]; Table 5, pyrrole compounds): 0.74 µM
- half-life at 3 μM [2]: 15.4 min
- microsomal CLint at 3 μM [2]: 89.8 ± 3 µL/min/mg

SMILES: O=C(NCc1c(F)cccc1Cl)c1ccc[nH]1 [Compound 80]
- EC50 ([1]; Table 5, pyrrole compounds): > 20 µM

SMILES: Cc1cc[nH]c1C(=O)NCc1c(F)cccc1Cl [Compound 81]
- EC50 ([1]; Table 5, pyrrole compounds): 4.9 µM

SMILES: Cc1ccn(C)c1C(=O)NCc1c(F)cccc1Cl [Compound 82]
- EC50 ([1]; Table 5, pyrrole compounds): > 20 µM

SMILES: Cc1ccn(C(C)C)c1C(=O)NCc1c(F)cccc1Cl [Compound 83]
- EC50 ([1]; Table 5, pyrrole compounds): 7.8 µM

SMILES: Cn1cccc1C(=O)NCc1c(F)cccc1Cl [Compound 84]
- EC50 ([1]; Table 5, pyrrole compounds): 0.9 µM
- half-life at 3 μM [2]: 17.2 min
- microsomal CLint at 3 μM [2]: 80.6 ± 4.4 µL/min/mg

SMILES: CC(C)n1cccc1C(=O)NCc1c(F)cccc1Cl [Compound 85]
- EC50 ([1]; Table 5, pyrrole compounds): 0.44 µM

SMILES: O=C(NCc1c(F)cccc1Cl)c1cccn1Cc1ccccc1 [Compound 86]
- EC50 ([1]; Table 5, pyrrole compounds): > 20 µM

SMILES: CC(c1ccccc1)n1cccc1C(=O)NCc1c(F)cccc1Cl (stereo not drawn) [Compound 87]
- EC50 ([1]; Table 5, pyrrole compounds): > 20 µM

SMILES: CN(Cc1c(F)cccc1Cl)C(=O)c1cccn1C [Compound 88]
- EC50 ([1]; Table 5, pyrrole compounds): > 20 µM

SMILES: CC(C)n1cccc1C(=O)N[C@@H](C)c1c(F)cccc1Cl [Compound 90]
- EC50 ([1]; Table 5, pyrrole compounds): 0.52 µM

SMILES: CC(C)n1cccc1C(=O)N[C@H](C)c1c(F)cccc1Cl [Compound 91]
- EC50 ([1]; Table 5, pyrrole compounds): > 20 µM

SMILES: CCn1c(Br)ccc1C(=O)NCc1c(F)cccc1Cl [Compound 93]
- EC50 ([1]; Table 5, pyrrole compounds): 2.4 µM

SMILES: Cn1c(C#N)ccc1C(=O)NCc1c(F)cccc1Cl [Compound 94]
- EC50 ([1]; Table 5, pyrrole compounds): 0.34 µM
- half-life at 3 μM [2]: 42.3 min
- microsomal CLint at 3 μM [2]: 32.8 ± 2.2 µL/min/mg

SMILES: CCn1c(C#N)ccc1C(=O)NCc1c(F)cccc1Cl [Compound 95]
- EC50 ([1]; Table 5, pyrrole compounds): 1.9 µM

SMILES: CC(C)n1c(C#N)ccc1C(=O)NCc1c(F)cccc1Cl [Compound 96]
- EC50 ([1]; Table 5, pyrrole compounds): 1.4 µM

SMILES: C[C@H](NC(=O)c1ccc(C#N)n1C)c1c(F)cccc1Cl [Compound 97]
- half-life at 3 μM [2]: 236 min
- microsomal CLint at 3 μM [2]: 5.9 ± 2.5 µL/min/mg

SMILES: Cn1cc(C#N)cc1C(=O)NCc1c(F)cccc1Cl [Compound 98]
- EC50 ([1]; Table 5, pyrrole compounds): > 20 µM

SMILES: CC(C)n1cc(C#N)cc1C(=O)NCc1c(F)cccc1Cl [Compound 99]
- EC50 ([1]; Table 5, pyrrole compounds): > 20 µM

From patent US8278344B2, “Heterocyclic inhibitors of necroptosis” (The Brigham and Women's Hospital, Inc., priority 2007, dated 2012)
